Patent US20090306012A1, “THERAPEUTIC PROTOCOLS” (priority 2001, published 2009)

System: neutrophils
Assay: Phase I clinical trial of 5-fluorouracil + HA (Hyfive) in metastatic colorectal cancer: toxicity, neutrophil counts
[1] = Patient 2, cycle Day 3, 5FU Cycle 1, HyFive Cycle 2
[2] = Patient 2, cycle Day 7, 5FU Cycle 1, HyFive Cycle 2
[3] = Patient 2, cycle Day 9, 5FU Cycle 1, HyFive Cycle 2
[4] = Patient 2, cycle Day 11, 5FU Cycle 1, HyFive Cycle 2
[5] = Patient 2, cycle Day 14, 5FU Cycle 1, HyFive Cycle 2
[6] = Patient 2, cycle Day 16, 5FU Cycle 1, HyFive Cycle 2
[7] = Patient 2, cycle Day 18, 5FU Cycle 1, HyFive Cycle 2
[8] = Patient 2, cycle Day 21, 5FU Cycle 1, HyFive Cycle 2
[9] = Patient 2, cycle Day 23, 5FU Cycle 1, HyFive Cycle 2
[10] = Patient 2, cycle Day 25, 5FU Cycle 1, HyFive Cycle 2
[11] = Patient 4, cycle Day 4, HyFive Cycle 1, 5FU Cycle 2
[12] = Patient 4, cycle Day 5, HyFive Cycle 1, 5FU Cycle 2
[13] = Patient 4, cycle Day 8, HyFive Cycle 1, 5FU Cycle 2
[14] = Patient 4, cycle Day 10, HyFive Cycle 1, 5FU Cycle 2
[15] = Patient 4, cycle Day 12, HyFive Cycle 1, 5FU Cycle 2
[16] = Patient 4, cycle Day 15, HyFive Cycle 1, 5FU Cycle 2
[17] = Patient 4, cycle Day 17, HyFive Cycle 1, 5FU Cycle 2
[18] = Patient 4, cycle Day 19, HyFive Cycle 1, 5FU Cycle 2
[19] = Patient 4, cycle Day 22, HyFive Cycle 1, 5FU Cycle 2
[20] = Patient 4, cycle Day 24, HyFive Cycle 1, 5FU Cycle 2
[21] = Patient 4, cycle Day 26, HyFive Cycle 1, 5FU Cycle 2
[22] = Patient 5, cycle Day 5, 5FU Cycle 1, HyFive Cycle 2
[23] = Patient 5, cycle Day 10, 5FU Cycle 1, HyFive Cycle 2
[24] = Patient 5, cycle Day 12, 5FU Cycle 1, HyFive Cycle 2
[25] = Patient 5, cycle Day 15, 5FU Cycle 1, HyFive Cycle 2
[26] = Patient 5, cycle Day 17, 5FU Cycle 1, HyFive Cycle 2
[27] = Patient 5, cycle Day 19, 5FU Cycle 1, HyFive Cycle 2
[28] = Patient 5, cycle Day 22, 5FU Cycle 1, HyFive Cycle 2
[29] = Patient 5, cycle Day 24, 5FU Cycle 1, HyFive Cycle 2
[30] = Patient 5, cycle Day 26, 5FU Cycle 1, HyFive Cycle 2
[31] = Patient 6, cycle Day 3, 5FU Cycle 1, HyFive Cycle 2
[32] = Patient 6, cycle Day 8, 5FU Cycle 1, HyFive Cycle 2
[33] = Patient 6, cycle Day 10, 5FU Cycle 1, HyFive Cycle 2
[34] = Patient 6, cycle Day 12, 5FU Cycle 1, HyFive Cycle 2
[35] = Patient 6, cycle Day 15, 5FU Cycle 1, HyFive Cycle 2
[36] = Patient 6, cycle Day 17, 5FU Cycle 1, HyFive Cycle 2
[37] = Patient 6, cycle Day 19, 5FU Cycle 1, HyFive Cycle 2
[38] = Patient 6, cycle Day 22, 5FU Cycle 1, HyFive Cycle 2
[39] = Patient 6, cycle Day 24, 5FU Cycle 1, HyFive Cycle 2
[40] = Patient 6, cycle Day 26, 5FU Cycle 1, HyFive Cycle 2
[41] = Patient 7, cycle Day 3, HyFive Cycle 1, 5FU Cycle 2
[42] = Patient 7, cycle Day 5, HyFive Cycle 1, 5FU Cycle 2
[43] = Patient 7, cycle Day 8, HyFive Cycle 1, 5FU Cycle 2
[44] = Patient 7, cycle Day 10, HyFive Cycle 1, 5FU Cycle 2
[45] = Patient 7, cycle Day 15, HyFive Cycle 1, 5FU Cycle 2
[46] = Patient 7, cycle Day 17, HyFive Cycle 1, 5FU Cycle 2
[47] = Patient 7, cycle Day 19, HyFive Cycle 1, 5FU Cycle 2
[48] = Patient 7, cycle Day 22, HyFive Cycle 1, 5FU Cycle 2
[49] = Patient 7, cycle Day 24, HyFive Cycle 1, 5FU Cycle 2
[50] = Patient 7, cycle Day 26, HyFive Cycle 1, 5FU Cycle 2

Method: The 5-FU±HA was given by intravenous administration over one hour on a four week cycle. The initial dose of 5-FU in this study was 450 mg/m^2 daily for three days and the dose of HA 500 mg/m^2 with each administration of 5-FU. Dose escalation occurred in two steps to reach the standard dose of 450 mg/m^2 for five consecutive days with each cycle. Therefore, the initial dose level was 450 mg/r^2 daily for three days, the next 450 mg/m^2 for four days and the final 450 mg/m^2 daily for five days.

SMILES: O=c1[nH]cc(F)c(=O)[nH]1 [5FU, 5-fluorouracil]
- Neutrophil Count [1]: 7.6
- Neutrophil Count as % Day 1 [1]: 82%
- Neutrophil Count [2]: 8.4
- Neutrophil Count as % Day 1 [2]: 90%
- Neutrophil Count [3]: 8.3
- Neutrophil Count as % Day 1 [3]: 89%
- Neutrophil Count [4]: 6.8
- Neutrophil Count as % Day 1 [4]: 73%
- Neutrophil Count [5]: 7
- Neutrophil Count as % Day 1 [5]: 75%
- Neutrophil Count [6]: 7.3
- Neutrophil Count as % Day 1 [6]: 78%
- Neutrophil Count [7]: 8.4
- Neutrophil Count as % Day 1 [7]: 90%
- Neutrophil Count [8]: 8.2
- Neutrophil Count as % Day 1 [8]: 88%
- Neutrophil Count [9]: 7.8
- Neutrophil Count as % Day 1 [9]: 84%
- Neutrophil Count [10]: 8.7
- Neutrophil Count as % Day 1 [10]: 94%
- Neutrophil Count (Patient 2 L-F (Day 3 Tx), cycle Day 1, 5FU Cycle 1, HyFive Cycle 2): 9.3
- Neutrophil Count [11]: 4.4
- Neutrophil Count as % Day 1 [11]: 86%
- Neutrophil Count [12]: 4.4
- Neutrophil Count as % Day 1 [12]: 86%
- Neutrophil Count [13]: 5
- Neutrophil Count as % Day 1 [13]: 98%
- Neutrophil Count [14]: 10.3
- Neutrophil Count as % Day 1 [14]: 202%
- Neutrophil Count [15]: 6.9
- Neutrophil Count as % Day 1 [15]: 135%
- Neutrophil Count [16]: 6.7
- Neutrophil Count as % Day 1 [16]: 131%
- Neutrophil Count [17]: 7.5
- Neutrophil Count as % Day 1 [17]: 147%
- Neutrophil Count [18]: 6.5
- Neutrophil Count as % Day 1 [18]: 127%
- Neutrophil Count [19]: 6.1
- Neutrophil Count as % Day 1 [19]: 120%
- Neutrophil Count [20]: 7.9
- Neutrophil Count as % Day 1 [20]: 155%
- Neutrophil Count [21]: 5.3
- Neutrophil Count as % Day 1 [21]: 104%
- Neutrophil Count (Patient 4 C-X (4 Day Tx), cycle Day 1, HyFive Cycle 1, 5FU Cycle 2): 5.1
- Neutrophil Count [22]: 4.5
- Neutrophil Count as % Day 1 [22]: 107%
- Neutrophil Count [23]: 4.1
- Neutrophil Count as % Day 1 [23]: 98%
- Neutrophil Count [24]: 4.3
- Neutrophil Count as % Day 1 [24]: 102%
- Neutrophil Count [25]: 3.7
- Neutrophil Count as % Day 1 [25]: 88%
- Neutrophil Count [26]: 3.3
- Neutrophil Count as % Day 1 [26]: 79%
- Neutrophil Count [27]: 4.3
- Neutrophil Count as % Day 1 [27]: 102%
- Neutrophil Count [28]: 4.3
- Neutrophil Count as % Day 1 [28]: 102%
- Neutrophil Count [29]: 4
- Neutrophil Count as % Day 1 [29]: 95%
- Neutrophil Count [30]: 4.5
- Neutrophil Count as % Day 1 [30]: 107%
- Neutrophil Count (Patient 5 J-M (5 Day Tx), cycle Day 1, 5FU Cycle 1, HyFive Cycle 2): 4.2
- Neutrophil Count [31]: 4.3
- Neutrophil Count as % Day 1 [31]: 81%
- Neutrophil Count [32]: 4.5
- Neutrophil Count as % Day 1 [32]: 85%
- Neutrophil Count [33]: 6.6
- Neutrophil Count as % Day 1 [33]: 125%
- Neutrophil Count [34]: 4.5
- Neutrophil Count as % Day 1 [34]: 85%
- Neutrophil Count [35]: 4.2
- Neutrophil Count as % Day 1 [35]: 79%
- Neutrophil Count [36]: 5.5
- Neutrophil Count as % Day 1 [36]: 104%
- Neutrophil Count [37]: 5.3
- Neutrophil Count as % Day 1 [37]: 100%
- Neutrophil Count [38]: 5.7
- Neutrophil Count as % Day 1 [38]: 108%
- Neutrophil Count [39]: 5.4
- Neutrophil Count as % Day 1 [39]: 102%
- Neutrophil Count [40]: 5
- Neutrophil Count as % Day 1 [40]: 94%
- Neutrophil Count (Patient 6 J-B (5 Day Tx), cycle Day 1, 5FU Cycle 1, HyFive Cycle 2): 5.3
- Neutrophil Count [41]: 2.3
- Neutrophil Count as % Day 1 [41]: 77%
- Neutrophil Count [42]: 2.8
- Neutrophil Count as % Day 1 [42]: 93%
- Neutrophil Count [43]: 3.2
- Neutrophil Count as % Day 1 [43]: 107%
- Neutrophil Count [44]: 2.5
- Neutrophil Count as % Day 1 [44]: 83%
- Neutrophil Count [45]: 2.7
- Neutrophil Count as % Day 1 [45]: 90%
- Neutrophil Count [46]: 2.5
- Neutrophil Count as % Day 1 [46]: 83%
- Neutrophil Count [47]: 3
- Neutrophil Count as % Day 1 [47]: 100%
- Neutrophil Count [48]: 3.4
- Neutrophil Count as % Day 1 [48]: 113%
- Neutrophil Count [49]: 3.1
- Neutrophil Count as % Day 1 [49]: 103%
- Neutrophil Count [50]: 3.5
- Neutrophil Count as % Day 1 [50]: 117%
- Neutrophil Count (Patient 7 V-D (5 Day Tx), cycle Day 1, HyFive Cycle 1, 5FU Cycle 2): 3
